Reference: ChEMBL document CHEMBL1159359, “A new phytotoxic nonenolide from Phoma herbarum” (J Nat Prod, 2003)
Activity calls are given as the source filed them. The calls are words filed in the database; no cut-off is given here.

Columns and labels:
[1] = tested on: Amaranthus hypochondriacus; assay: Phytotoxicity against Amaranthus hypochondriacus seedlings assessed as inhibition of radical growth at 28 degC by petri dish assay; type: functional, organism-based
[2] = Inhibition of bovine brain calmodulin-dependent cyclic nucleotide phosphodiesterase after 30 min; set-up: species or system Bos taurus
Calmodulin (Bos taurus) = Calmodulin (Bos taurus) (UniProt P62157); assay: Binding affinity to bovine brain calmodulin assessed as decrease in electrophoretic mobility at 0.033 ug/ml for 1.5 hrs by SDS-PAGE in presence of Ca2+ ions

SMILES	IC50 [1] [µM]	IC50 [2] [µM]	Activity (Calmodulin (Bos taurus))
O=C(O)COc1ccc(Cl)cc1Cl [2,4-DICHLOROPHENOXYACETIC ACID]	200	–	–
CN(C)CCCN1c2ccccc2Sc2ccc(Cl)cc21 [CHLORPROMAZINE]	–	9.8	–
CCC[C@@H]1C[C@@H](O)/C=C/CCCC(=O)O1 [HERBARUMIN III]	20	–	Active
CCC[C@H]1OC(=O)[C@H](O)CC/C=C/[C@H](O)[C@@H]1O [HERBARUMIN II]	–	6.6	Active
CCC[C@H]1OC(=O)CCC/C=C/[C@H](O)[C@@H]1O [HERBARUMIN I]	–	14.2	Active
